Measured values taken from patent US20150105252A1, “SUBSTITUTED PYRAZOLES AS HERBICIDES” (E I DU PONT DE NEMOURS AND COMPANY, priority 2013, published 2015).

How the values were obtained:
[1] = test system: barnyardgrass; assay: Test A preemergence; type: in vivo, Echinochloa crus-galli; settings: preemergence
Procedure, shortened: (§1)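 Greenhouse test in loam soil/sand blend; compounds formulated in non-phytotoxic solvent with surfactant, applied as preemergence directed soil spray or postemergence to plants 2–10 cm tall at one- to two-leaf stage. Injury rated visually versus untreated controls after approximately 10 days on a 0 (no effect) to 100 (complete control) scale.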

[2] = test system: crabgrass, large; assay: Test A postemergence; type: in vivo, Digitaria sanguinalis
Procedure, shortened: as §1

[3] = test system: rice; assay: Test B flood; type: in vivo, Oryza sativa; settings: 250 g ai/ha, visual rating on 0 to 100 scale (0 no effect, 100 complete control), 13 to 15 days
Procedure, shortened: (§2)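 Visual ratings (0 = no effect, 100 = complete control) versus untreated controls were taken 13–15 days after treatment of greenhouse plants. Treatment was added to paddy water held at 3 cm depth on 2-leaf-stage seedlings.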

[4] = test system: ducksalad; assay: Test B flood; type: in vivo, Heteranthera limosa; settings: 250 g ai/ha, visual rating on 0 to 100 scale (0 no effect, 100 complete control), 13 to 15 days
Procedure, shortened: as §2

[5] = test system: lambsquarters; assay: Test C preemergence; type: in vivo, Chenopodium album; settings: preemergence; for Plant response rating, Lambsquarters: 125 g ai/ha, scale 0 to 100, 0 = no effect, 100 = complete control
Procedure, shortened: (§3)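 Scores of 0 (no effect) to 100 (complete control) were assigned by eye after 13–15 days, comparing treated pots with controls. Soil-applied (preemergence) treatments went onto seeds in loam and sand; foliar (postemergence) treatments onto 1- to 4-leaf plants in peat medium.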

[6] = test system: morningglory; assay: Test C preemergence; type: in vivo, Ipomoea coccinea; settings: preemergence; for Plant response rating, Morningglory: 125 g ai/ha, scale 0 to 100, 0 = no effect, 100 = complete control
Procedure, shortened: as §3

[7] = test system: nutsedge, yellow; assay: Test C preemergence; type: in vivo, Cyperus esculentus; settings: preemergence; for Plant response rating, Nutsedge, Yellow: 125 g ai/ha, scale 0 to 100, 0 = no effect, 100 = complete control
Procedure, shortened: as §3

[8] = test system: waterhemp; assay: Test C preemergence; type: in vivo, Amaranthus rudis; settings: preemergence; for Plant response rating, Waterhemp: 125 g ai/ha, scale 0 to 100, 0 = no effect, 100 = complete control
Procedure, shortened: as §3

[9] = test system: velvetleaf; assay: Test C preemergence; type: in vivo, Abutilon theophrasti; settings: preemergence; for Plant response rating, Velvetleaf: 125 g ai/ha, scale 0 to 100, 0 = no effect, 100 = complete control
Procedure, shortened: as §3

[10] = test system: johnsongrass; assay: Test C postemergence; type: in vivo, Sorghum halepense; settings: for Plant response rating (scale of 0 to 100 where 0 is no effect and 100 is complete control), Johnsongrass: Postemergence, 31 g ai/ha, visually evaluated after 13 to 15 days; for Johnsongrass plant response rating / Plant response rating, Johnsongrass: postemergence; for Johnsongrass plant response rating: 62 g ai/ha, scale 0 to 100
Procedure, shortened: as §3

[11] = test system: nutsedge, yellow; assay: Test C postemergence; type: in vivo, Cyperus esculentus; settings: for Plant response rating (scale of 0 to 100 where 0 is no effect and 100 is complete control), Nutsedge, Yellow: Postemergence, 31 g ai/ha, visually evaluated after 13 to 15 days; for Nutsedge, Yellow plant response rating / Plant response rating, Nutsedge, Yellow: postemergence; for Nutsedge, Yellow plant response rating: 62 g ai/ha, scale 0 to 100
Procedure, shortened: as §3

[12] = test system: soybean; assay: Test C postemergence; type: in vivo, Glycine max; settings: postemergence; for Plant response rating, Soybean: 250 g ai/ha, scale 0 to 100 (0 no effect, 100 complete control); for Soybean plant response rating: 125 g ai/ha, scale 0 to 100, 0 no effect, 100 complete control
Procedure, shortened: as §3

[13] = test system: kochia; assay: Test C postemergence; type: in vivo, Kochia scoparia; settings: for Plant response rating (scale of 0 to 100 where 0 is no effect and 100 is complete control), Kochia: Postemergence, 31 g ai/ha, visually evaluated after 13 to 15 days; for Kochia plant response rating / Plant response rating, Kochia: postemergence; for Kochia plant response rating: 62 g ai/ha, scale 0 to 100
Procedure, shortened: as §3

[14] = 500 g ai/ha, visual injury after approx. 10 days, 0 to 100 scale (0 no effect, 100 complete control)
[15] = Postemergence, 500 g ai/ha, 0 to 100 scale (0 no effect, 100 complete control)
[16] = postemergence, 125 g ai/ha, about 10 days, visual rating on 0 to 100 scale (0 no effect, 100 complete control)
[17] = 31 g ai/ha, visual rating, scale 0 to 100 (0 no effect, 100 complete control), 13 to 15 days
[18] = 62 g ai/ha, scale 0 to 100 (0 no effect, 100 complete control), 13 to 15 days
[19] = 250 g ai/ha, scale 0 to 100, 0 is no effect, 100 is complete control
[20] = 250 g ai/ha, scale 0 to 100 (0 no effect, 100 complete control)
[21] = 125 g ai/ha, scale 0 to 100, 0 no effect, 100 complete control

Compound	Barnyardgrass plant response rating [1, 14]	Crabgrass, Large plant response rating [2, 15]	Crabgrass, Large plant response rating [2, 16]	Plant response rating, Rice [3]	Plant response rating, Ducksalad [4]	Lambsquarters plant response rating [5, 17]	Lambsquarters plant response rating [5, 18]	Plant response rating, Lambsquarters ([5]; 13 to 15 days)	Lambsquarters plant response rating [5, 19]	Morningglory plant response rating [6, 17]	Morningglory plant response rating [6, 18]	Plant response rating, Morningglory ([6]; 13 to 15 days)	Morningglory plant response rating [6, 19]	Nutsedge, Yellow plant response rating [7, 17]	Nutsedge, Yellow plant response rating [7, 18]	Plant response rating, Nutsedge, Yellow ([7]; 13 to 15 days)	Nutsedge, Yellow plant response rating [7, 19]	Waterhemp plant response rating [8, 17]	Waterhemp plant response rating [8, 18]	Plant response rating, Waterhemp ([8]; 13 to 15 days)	other results
CCNC(=O)c1cc(CC)n(Cc2cc(C(F)(F)F)nn2C)n1 [Compound 154]	100	100	100	0	90	65	98	100	98	35	90	100	100	0	15	35	60	85	100	100	Barnyardgrass plant response rating ([1]; 125 g ai/ha, visual injury, 0 to 100 scale, approx. 10 days): 90; Waterhemp plant response rating [8, 19]: 100; Velvetleaf plant response rating [9, 17]: 10; Velvetleaf plant response rating [9, 18]: 40; Plant response rating, Velvetleaf ([9]; 13 to 15 days): 90; Velvetleaf plant response rating [9, 19]: 100; Plant response rating (scale of 0 to 100 where 0 is no effect and 100 is complete control), Johnsongrass [10]: 0; Johnsongrass plant response rating [10]: 0; Plant response rating, Johnsongrass [10, 20]: 5; Plant response rating, Johnsongrass [10, 21]: 5; Plant response rating (scale of 0 to 100 where 0 is no effect and 100 is complete control), Nutsedge, Yellow [11]: 0; Nutsedge, Yellow plant response rating [11]: 0; Plant response rating, Nutsedge, Yellow [11, 20]: 5; Plant response rating, Nutsedge, Yellow [11, 21]: 5; Plant response rating, Soybean [12]: 90; Soybean plant response rating [12]: 85; Plant response rating (scale of 0 to 100 where 0 is no effect and 100 is complete control), Kochia [13]: 80; Kochia plant response rating [13]: 85; Plant response rating, Kochia [13, 20]: 95; Plant response rating, Kochia [13, 21]: 85
CCCNC(=O)c1cc(CCF)n(Cc2ccnc(C(F)(F)F)c2)n1 [Compound 177]	100	100	100	15	95	85	98	98	98	25	95	100	100	5	60	80	95	98	98	98	Barnyardgrass plant response rating (0 to 100 scale, 0 is no effect, 100 is complete control) ([1]; 125 g ai/ha, visual injury approx. 10 days after treatment): 100; Waterhemp plant response rating [8, 19]: 100; Velvetleaf plant response rating [9, 17]: 0; Velvetleaf plant response rating [9, 18]: 35; Plant response rating, Velvetleaf ([9]; 13 to 15 days): 50; Velvetleaf plant response rating [9, 19]: 100; Plant response rating (scale of 0 to 100 where 0 is no effect and 100 is complete control), Johnsongrass [10]: 0; Johnsongrass plant response rating [10]: 0; Plant response rating, Johnsongrass [10, 20]: 5; Plant response rating, Johnsongrass [10, 21]: 5; Plant response rating (scale of 0 to 100 where 0 is no effect and 100 is complete control), Nutsedge, Yellow [11]: 10; Nutsedge, Yellow plant response rating [11]: 5; Plant response rating, Nutsedge, Yellow [11, 20]: 15; Plant response rating, Nutsedge, Yellow [11, 21]: 5; Plant response rating, Soybean [12]: 95; Soybean plant response rating [12]: 90; Plant response rating (scale of 0 to 100 where 0 is no effect and 100 is complete control), Kochia [13]: 60; Kochia plant response rating [13]: 85; Plant response rating, Kochia [13, 20]: 90; Plant response rating, Kochia [13, 21]: 90
